# Measurements as given in patent US20040162263A1, “Pharmaceutical formulations targeting specific regions of the gastrointesinal tract” (priority 2002, published 2004).
# Experiment: Pharmacokinetics of 9-nitro-camptothecin (9NC) in IVAP beagle dog model
# Format: in vivo, beagle dogs
# Details: for Mean AUC0-inf of 9-AC, Portal Vein AUC / Mean AUC0-inf of 9-AC, Systemic AUC: in ng·h/mL
# Procedure: Blood samples were taken systemic and from the portal vein through a sampling/delivery vascular port previously implanted, then plasma was separated by centrifugation and kept frozen at −80° C. until analysis.
# The samples were analyzed in a Perkin Elmer liquid chromatography-tandem mass spectrometer system with a PE LC-200 Micro pump, a PE200 Autosampler and a PE Sciex API 365 mass spectrometry unit.
# Adult male beagle dogs (between the ages of 1 and 5 years and weighed between 9 and 16 kg) were obtained from Summit Ridge Farms, Susquehanna, Pa. The IVAP dogs were prepared by using a protocol similar to the one used for pentostatin experiments described above.
# On the morning of the test, each animal is weighed and placed in the sling. An IV catheter is installed in the brachial vein for systemic blood sampling with a multiuse vacutainer needle adapter. This is flushed with heparinized saline (50 units/ml) to maintain potency between sampling. When necessary, a 20 g or 22 g right-angled Huber infusion set would be placed in the PV port and attached to a three-way stopcock for PV blood sampling.
# The preparation of the dose depends on the route of study. In case of IV and PV administration, the drug was dissolved in dimethylacetamide (DMA) at 5 mg/ml and 0.5 ml of the DMA concentrate filtered through a […] filter into 4.5 ml of diluent (51% PEG-400 49% 0.001 M H3PO4) prior to administration to the brachial or portal vein. In the case of all other infusions, as well as oral administration, the drug was dissolved in vegetable oil to a concentration of 1 mg/ml and drawn up into dosing syringes. Animals were dosed IV at 0.1 and 0.2 mg/kg and 0.2 mg/kg for all the other routes of administration tested.
# In intravascular studies, the dose is administered via a second catheter and the entire volume is delivered within 45 seconds.
# In portal vein studies, the dose is also administered via an additional catheter over a 30 min time period.
# In the case of oral dosages, the dose is delivered to the back of the mouth with an appropriate size syringe and is followed with 5 ml of tap water to assist swallowing and clearance of the dose from the mouth. Capsules were administered similarly by placing them at the back of the mouth and giving around 5 ml of water to facilitate swallowing.
# For all other tests, the dosage is infused into the appropriate intestinal port and flushed with 2-3 ml of sterile saline. The dead space volume of the ports and tubing vary slightly between individuals, but are generally less than 0.5 ml total. […]
# Systemic blood samples allow the calculation of AUC0-inf after oral capsule administration only and portal vein AUC for all the routes of administration.
# [1] = 9-NC 0.2 mg/kg COLON port, 0.17 hr
# [2] = 9-NC 0.2 mg/kg ileum port, 0.17 hr
# [3] = 9-NC 0.2 mg/kg jejunal port, 0.17 hr
# [4] = portal vein samples, 9-NC via COLON port
# [5] = portal vein samples, 9-NC via ILEUM port
# [6] = portal vein samples, 9-NC via JEJUNUM port
# [7] = systemic samples, 9-NC via COLON port
# [8] = systemic samples, 9-NC via ILEUM port
# [9] = systemic samples, 9-NC via JEJUNUM port
compound,measurement,setting,value
"CC[C@@]1(O)C(=O)OCc2c1cc1n(c2=O)Cc2cc3c(N)cccc3nc2-1 [9-AC, 9-amino-20(S)-camptothecin]","Mean plasma concentration, Portal Vein",[1],0.50 ± 0.03 ng/mL
same,"Mean plasma concentration, Systemic",[1],0.42 ng/mL
same,"Mean plasma concentration, Portal Vein",[2],0.12 ng/mL
same,"Mean plasma concentration, Systemic",[2],BQL
same,"Mean plasma concentration, Portal Vein",[3],0.10 ng/mL
same,"Mean plasma concentration, Systemic",[3],BQL
same,"Mean AUC0-inf of 9-AC, Portal Vein AUC",9-NC Intracolon,20.81 ± 9.57
same,"Mean AUC0-inf of 9-AC, Systemic AUC",9-NC Intracolon,36.91 ± 22.62
same,"Mean AUC0-inf of 9-AC, Systemic AUC",9-NC Intraileum,21.23 ± 14.94
same,"Mean AUC0-inf of 9-AC, Portal Vein AUC",9-NC Intrajejunal,50.26 ± 6.65
same,"Mean AUC0-inf of 9-AC, Systemic AUC",9-NC Intrajejunal,24.41 ± 7.77
same,"Mean AUC0-inf of 9-AC, Portal Vein AUC",9-NC Intravenous (0.1 mg/kg),10.76 ± 3.02
same,"Mean AUC0-inf of 9-AC, Systemic AUC",9-NC Intravenous (0.1 mg/kg),12.14 ± 5.68
same,"Mean AUC0-inf of 9-AC, Portal Vein AUC",9-NC Intravenous (0.2 mg/kg),25.02 ± 9.87
same,"Mean AUC0-inf of 9-AC, Systemic AUC",9-NC Intravenous (0.2 mg/kg),21.04 ± 2.36
same,"Mean AUC0-inf of 9-AC, Portal Vein AUC",9-NC Oral - capsule,66.15 ± 34.53
same,"Mean AUC0-inf of 9-AC, Systemic AUC",9-NC Oral - capsule,44.74 ± 24.72
same,"Mean AUC0-inf of 9-AC, Portal Vein AUC",9-NC Oral - suspension,34.43 ± 9.52
same,"Mean AUC0-inf of 9-AC, Systemic AUC",9-NC Oral - suspension,20.31 ± 6.97
same,"Mean AUC0-inf of 9-AC, Systemic AUC",9-NC Portal vein,4.73 ± 0.73
same,"Mean plasma concentration, Portal Vein","COLON port, 0.5 hr",0.77 ± 0.42 ng/mL
same,"Mean plasma concentration, Systemic","COLON port, 0.5 hr",0.30 ± 0.29 ng/mL
same,"Mean plasma concentration, Portal Vein","COLON port, 1 hr",1.20 ± 0.60 ng/mL
same,"Mean plasma concentration, Systemic","COLON port, 1 hr",0.45 ± 0.20 ng/mL
same,"Mean plasma concentration, Portal Vein","COLON port, 1.5 hr",1.19 ± 0.97 ng/mL
same,"Mean plasma concentration, Systemic","COLON port, 1.5 hr",0.76 ± 0.12 ng/mL
same,"Mean plasma concentration, Portal Vein","COLON port, 2 hr",1.50 ± 0.66 ng/mL
same,"Mean plasma concentration, Systemic","COLON port, 2 hr",0.68 ± 0.11 ng/mL
same,"Mean plasma concentration, Portal Vein","COLON port, 3 hr",0.88 ± 0.19 ng/mL
same,"Mean plasma concentration, Systemic","COLON port, 3 hr",0.83 ± 0.36 ng/mL
same,"Mean plasma concentration, Portal Vein","COLON port, 4 hr",2.06 ± 1.69 ng/mL
same,"Mean plasma concentration, Systemic","COLON port, 4 hr",0.90 ± 0.45 ng/mL
same,"Mean plasma concentration, Portal Vein","COLON port, 6 hr",1.54 ± 1.06 ng/mL
same,"Mean plasma concentration, Systemic","COLON port, 6 hr",0.74 ± 0.06 ng/mL
same,"Mean plasma concentration, Portal Vein","COLON port, 8 hr",0.70 ng/mL
same,"Mean plasma concentration, Systemic","COLON port, 8 hr",1.14 ± 0.38 ng/mL
same,"Mean plasma concentration, Systemic","COLON port, 10 hr",0.77 ng/mL
same,"Mean plasma concentration, Portal Vein","COLON port, 12 hr",0.76 ng/mL
same,"Mean plasma concentration, Systemic","COLON port, 12 hr",1.11 ± 0.78 ng/mL
same,"Mean plasma concentration, Portal Vein","COLON port, 24 hr",0.77 ng/mL
same,"Mean plasma concentration, Systemic","COLON port, 24 hr",0.83 ± 0.00 ng/mL
same,half-life of metabolite,after IV 0.1 mg/kg 9-NC,3.51 ± 1.87 h
same,half-life of metabolite,after IV 0.2 mg/kg 9-NC,6.94 ± 2.87 h
same,time at which the metabolite reached the maximum concentration,after IV dosing of 9-NC,around 1 hr
same,"Mean plasma concentration, Portal Vein","ileum port, 0.5 hr",0.26 ng/mL
same,"Mean plasma concentration, Systemic","ileum port, 0.5 hr",0.11 ng/mL
same,"Mean plasma concentration, Portal Vein","ileum port, 1 hr",0.28 ± 0.06 ng/mL
same,"Mean plasma concentration, Systemic","ileum port, 1 hr",0.20 ng/mL
same,"Mean plasma concentration, Portal Vein","ileum port, 1.5 hr",0.75 ± 0.52 ng/mL
same,"Mean plasma concentration, Systemic","ileum port, 1.5 hr",0.23 ± 0.10 ng/mL
same,"Mean plasma concentration, Portal Vein","ileum port, 2 hr",0.99 ± 0.60 ng/mL
same,"Mean plasma concentration, Systemic","ileum port, 2 hr",0.52 ± 0.42 ng/mL
same,"Mean plasma concentration, Portal Vein","ileum port, 3 hr",1.80 ± 1.97 ng/mL
same,"Mean plasma concentration, Systemic","ileum port, 3 hr",1.40 ng/mL
same,"Mean plasma concentration, Portal Vein","ileum port, 4 hr",3.06 ± 3.74 ng/mL
same,"Mean plasma concentration, Systemic","ileum port, 4 hr",0.86 ± 0.67 ng/mL
same,"Mean plasma concentration, Portal Vein","ileum port, 6 hr",4.09 ± 4.44 ng/mL
same,"Mean plasma concentration, Systemic","ileum port, 6 hr",1.17 ± 0.75 ng/mL
same,"Mean plasma concentration, Systemic","ileum port, 8 hr",2.04 ± 0.20 ng/mL
same,"Mean plasma concentration, Systemic","ileum port, 12 hr",0.85 ± 0.95 ng/mL
same,"Mean plasma concentration, Systemic","ileum port, 24 hr",0.47 ng/mL
same,"Mean plasma concentration, Portal Vein","jejunal port, 0.5 hr",0.12 ng/mL
same,"Mean plasma concentration, Systemic","jejunal port, 0.5 hr",BQL
same,"Mean plasma concentration, Portal Vein","jejunal port, 1 hr",0.16 ± 0.10 ng/mL
same,"Mean plasma concentration, Systemic","jejunal port, 1 hr",0.38 ng/mL
same,"Mean plasma concentration, Portal Vein","jejunal port, 2 hr",0.39 ± 0.04 ng/mL
same,"Mean plasma concentration, Systemic","jejunal port, 2 hr",0.32 ± 0.11 ng/mL
same,"Mean plasma concentration, Portal Vein","jejunal port, 3 hr",0.97 ± 0.76 ng/mL
same,"Mean plasma concentration, Systemic","jejunal port, 3 hr",0.47 ± 0.38 ng/mL
same,"Mean plasma concentration, Portal Vein","jejunal port, 4 hr",2.38 ± 2.20 ng/mL
same,"Mean plasma concentration, Systemic","jejunal port, 4 hr",0.89 ± 0.67 ng/mL
same,"Mean plasma concentration, Portal Vein","jejunal port, 6 hr",1.65 ± 1.13 ng/mL
same,"Mean plasma concentration, Systemic","jejunal port, 6 hr",1.59 ± 1.71 ng/mL
same,"Mean plasma concentration, Portal Vein","jejunal port, 8 hr",2.70 ± 0.59 ng/mL
same,"Mean plasma concentration, Systemic","jejunal port, 8 hr",1.71 ± 1.54 ng/mL
same,"Mean plasma concentration, Systemic","jejunal port, 10 hr",1.81 ± 1.09 ng/mL
same,"Mean plasma concentration, Portal Vein","jejunal port, 12 hr",2.62 ± 0.29 ng/mL
same,"Mean plasma concentration, Systemic","jejunal port, 12 hr",1.03 ± 0.05 ng/mL
same,"Mean plasma concentration, Portal Vein","jejunal port, 24 hr",0.66 ng/mL
same,"Mean plasma concentration, Systemic","jejunal port, 24 hr",0.45 ± 0.29 ng/mL
same,AUC0-INF,"portal vein samples, 0.2 mg/kg 9-NC via COLON port",20.81 ± 9.57 ng·h/mL
same,AUC0-INF,"portal vein samples, 0.2 mg/kg 9-NC via JEJUNUM port",50.26 ± 6.65 ng·h/mL
same,AUCLast,[4],12.69 ± 5.10 ng·h/mL
same,CMAX,[4],2.28 ± 1.59 ng/mL
same,MRT,[4],7.54 ± 0.61 h
same,T1/2,[4],3.98 ± 0.25 h
same,TMAX,[4],4.00 ± 2.00 h
same,AUCLast,[5],11.83 ± 12.85 ng·h/mL
same,CMAX,[5],4.10 ± 2.28 ng/mL
same,TMAX,[5],6.00 ± 0.00 h
same,AUCLast,[6],28.70 ± 12.16 ng·h/mL
same,CMAX,[6],3.46 ± 1.22 ng/mL
same,MRT,[6],13.97 ± 2.62 h
same,T1/2,[6],6.54 ± 1.30 h
same,TMAX,[6],9.33 ± 4.62 h
same,AUC0-INF,"systemic samples, 0.2 mg/kg 9-NC via COLON port",36.91 ± 22.62 ng·h/mL
same,AUC0-INF,"systemic samples, 0.2 mg/kg 9-NC via ILEUM port",21.23 ± 14.94 ng·h/mL
same,AUC0-INF,"systemic samples, 0.2 mg/kg 9-NC via JEJUNUM port",24.41 ± 7.77 ng·h/mL
same,AUCLast,[7],19.34 ± 11.92 ng·h/mL
same,CMAX,[7],1.29 ± 0.63 ng/mL
same,MRT,[7],57.62 ± 42.79 h
same,T1/2,[7],15.16 ± 14.34 h
same,TMAX,[7],9.33 ± 2.31 h
same,AUCLast,[8],18.69 ± 11.73 ng·h/mL
same,CMAX,[8],2.04 ± 0.20 ng/mL
same,MRT,[8],10.64 ± 5.14 h
same,T1/2,[8],4.09 ± 4.24 h
same,TMAX,[8],8.00 ± 0.00 h
same,AUCLast,[9],18.86 ± 5.73 ng·h/mL
same,CMAX,[9],1.99 ± 1.39 ng/mL
same,MRT,[9],15.64 ± 8.69 h
same,T1/2,[9],7.20 ± 5.98 h
same,TMAX,[9],8.67 ± 2.31 h
